Experimental data: ChEMBL document CHEMBL1128492, “Effect of lipophilicity at N-1 on activity of fluoroquinolones against mycobacteria” (J Med Chem, 1995)
Converted amounts (≈) assume the structure as drawn.

Key:
[1] = Dissociation constant (pKa1)
[2] = tested on: Mycolicibacterium fortuitum; test: Minimum inhibitory concentration against Mycobacterium fortuitum; format: functional
Streptococcus pyogenes = test: Minimum inhibitory concentration against gram-positive Streptococcus pyogenes C203 (SP1-1); format: functional
Staphylococcus aureus = test: Minimum inhibitory concentration against gram-positive Staphylococcus aureus H-228 (SA-13); format: functional
[3] = Dissociation constant (pKa2)
Pseudomonas aeruginosa = test: Minimum inhibitory concentration against gram-negative Pseudomonas aeruginosa U1-18 (PA-7); format: functional
[4] = tested on: Mycolicibacterium smegmatis; test: Minimum inhibitory concentration against Mycobacterium smegmatis; format: functional
Escherichia coli = test: Minimum inhibitory concentration against gram-negative Escherichia coli Vogel (EC-1); format: functional

SMILES | pKa [1] | MIC [2] | MIC (Streptococcus pyogenes) | MIC (Staphylococcus aureus) | pKa [3] | MIC (Pseudomonas aeruginosa) | MIC [4] | MIC (Escherichia coli)
Cc1ccccc1-n1cc(C(=O)O)c(=O)c2cc(F)c(N3CCNCC3)cc21 | 5.98 | 4 µg/mL (≈ 10.5 µM) | > 3.1 µg/mL | 3.1 µg/mL (≈ 8.13 µM) | 8.59 | 1.6 µg/mL (≈ 4.19 µM) | 8 µg/mL (≈ 21 µM) | 0.4 µg/mL (≈ 1.05 µM)
Cc1ccccc1-n1cc(C(=O)O)c(=O)c2cc(F)c(N3CC(C)NC(C)C3)cc21 (configuration not stated) | 6.01 | 1 µg/mL (≈ 2.44 µM) | > 3.1 µg/mL | > 3.1 µg/mL | 8.55 | > 3.1 µg/mL | 8 µg/mL (≈ 19.5 µM) | 1.6 µg/mL (≈ 3.91 µM)
Cc1c(F)ccc(-n2cc(C(=O)O)c(=O)c3cc(F)c(N4CC(C)NC(C)C4)cc32)c1F (configuration not stated) | 5.94 | 1 µg/mL (≈ 2.24 µM) | > 3.1 µg/mL | 1.6 µg/mL (≈ 3.59 µM) | 8.47 | > 3.1 µg/mL | 4 µg/mL (≈ 8.98 µM) | 3.1 µg/mL (≈ 6.96 µM)
CC1CN(c2cc3c(cc2F)c(=O)c(C(=O)O)cn3-c2ccc(Cl)cc2Cl)CC(C)N1 (configuration not stated) | 5.75 | 2 µg/mL (≈ 4.31 µM) | > 3.1 µg/mL | > 3.1 µg/mL | 8.37 | > 3.1 µg/mL | 4 µg/mL (≈ 8.61 µM) | 1.6 µg/mL (≈ 3.45 µM)
CC1CN(c2cc3c(cc2F)c(=O)c(C(=O)O)cn3-c2ccccc2)CC(C)N1 (configuration not stated) | 6.12 | 2 µg/mL (≈ 5.06 µM) | 3.1 µg/mL (≈ 7.84 µM) | 1.6 µg/mL (≈ 4.05 µM) | 8.58 | 1.6 µg/mL (≈ 4.05 µM) | 4 µg/mL (≈ 10.1 µM) | 0.4 µg/mL (≈ 1.01 µM)
Cc1ccc(-n2cc(C(=O)O)c(=O)c3cc(F)c(N4CC(C)NC(C)C4)cc32)c(C)c1 (configuration not stated) | 6.05 | 4 µg/mL (≈ 9.45 µM) | > 3.1 µg/mL | > 3.1 µg/mL | 8.24 | > 3.1 µg/mL | 16 µg/mL (≈ 37.8 µM) | 3.1 µg/mL (≈ 7.32 µM)
Cc1ccc(-n2cc(C(=O)O)c(=O)c3cc(F)c(N4CCNCC4)cc32)c(F)c1 | 5.96 | 1 µg/mL (≈ 2.5 µM) | 3.1 µg/mL (≈ 7.76 µM) | 1.6 µg/mL (≈ 4.01 µM) | 8.34 | 1.6 µg/mL (≈ 4.01 µM) | 2 µg/mL (≈ 5.01 µM) | 0.2 µg/mL (≈ 0.501 µM)
O=C(O)c1cn(-c2ccc(Cl)cc2Cl)c2cc(N3CCNCC3)c(F)cc2c1=O | – | 2 µg/mL (≈ 4.58 µM) | > 3.1 µg/mL | > 3.1 µg/mL | – | 3.1 µg/mL (≈ 7.11 µM) | 4 µg/mL (≈ 9.17 µM) | 0.4 µg/mL (≈ 0.917 µM)
CC1CN(c2cc3c(cc2F)c(=O)c(C(=O)O)cn3-c2ccc(F)cc2)CC(C)N1 (configuration not stated) | – | 0.25 µg/mL (≈ 0.605 µM) | 0.8 µg/mL (≈ 1.94 µM) | 0.4 µg/mL (≈ 0.968 µM) | – | 0.8 µg/mL (≈ 1.94 µM) | 1 µg/mL (≈ 2.42 µM) | 0.2 µg/mL (≈ 0.484 µM)
Cc1cc(F)ccc1-n1cc(C(=O)O)c(=O)c2cc(F)c(N3CC(C)NC(C)C3)cc21 (configuration not stated) | 6.16 | 2 µg/mL (≈ 4.68 µM) | > 3.1 µg/mL | 1.6 µg/mL (≈ 3.74 µM) | 8.16 | 1.6 µg/mL (≈ 3.74 µM) | 2 µg/mL (≈ 4.68 µM) | 0.4 µg/mL (≈ 0.936 µM)
O=C(O)c1cn(-c2ccccc2F)c2cc(N3CCNCC3)c(F)cc2c1=O | – | 0.25 µg/mL (≈ 0.649 µM) | 1.6 µg/mL (≈ 4.15 µM) | 0.8 µg/mL (≈ 2.08 µM) | – | 0.8 µg/mL (≈ 2.08 µM) | 2 µg/mL (≈ 5.19 µM) | 0.1 µg/mL (≈ 0.259 µM)
O=C(O)c1cn(-c2ccc(F)cc2F)c2cc(N3CCNCC3)c(F)cc2c1=O | 5.87 | 0.25 µg/mL (≈ 0.62 µM) | 0.4 µg/mL (≈ 0.992 µM) | 0.4 µg/mL (≈ 0.992 µM) | 8.31 | 0.2 µg/mL (≈ 0.496 µM) | 0.5 µg/mL (≈ 1.24 µM) | 0.1 µg/mL (≈ 0.248 µM)
Cc1ccc(-n2cc(C(=O)O)c(=O)c3cc(F)c(N4CCNCC4)cc32)c(C)c1 | – | 16 µg/mL (≈ 40.5 µM) | > 3.1 µg/mL | > 3.1 µg/mL | – | 3.1 µg/mL (≈ 7.84 µM) | 32 µg/mL (≈ 80.9 µM) | 0.8 µg/mL (≈ 2.02 µM)
CC1CN(c2cc3c(cc2F)c(=O)c(C(=O)O)cn3-c2ccccc2F)CC(C)N1 (configuration not stated) | 5.88 | 0.5 µg/mL (≈ 1.21 µM) | 3.1 µg/mL (≈ 7.5 µM) | 1.6 µg/mL (≈ 3.87 µM) | 8.51 | 1.6 µg/mL (≈ 3.87 µM) | 2 µg/mL (≈ 4.84 µM) | 0.4 µg/mL (≈ 0.968 µM)
Cc1c(F)ccc(-n2cc(C(=O)O)c(=O)c3cc(F)c(N4CCNCC4)cc32)c1F | 5.87 | 0.5 µg/mL (≈ 1.2 µM) | 3.1 µg/mL (≈ 7.43 µM) | 1.6 µg/mL (≈ 3.83 µM) | 8.54 | 3.1 µg/mL (≈ 7.43 µM) | 8 µg/mL (≈ 19.2 µM) | 0.8 µg/mL (≈ 1.92 µM)
Cc1ccc(-n2cc(C(=O)O)c(=O)c3cc(F)c(N4CC(C)NC(C)C4)cc32)c(F)c1 (configuration not stated) | – | 1 µg/mL (≈ 2.34 µM) | > 3.1 µg/mL | 3.1 µg/mL (≈ 7.25 µM) | – | 3.1 µg/mL (≈ 7.25 µM) | 2 µg/mL (≈ 4.68 µM) | 0.8 µg/mL (≈ 1.87 µM)
O=C(O)c1cn(-c2ccccc2)c2cc(N3CCNCC3)c(F)cc2c1=O | – | 0.5 µg/mL (≈ 1.36 µM) | 3.1 µg/mL (≈ 8.44 µM) | 0.8 µg/mL (≈ 2.18 µM) | – | 0.8 µg/mL (≈ 2.18 µM) | 2 µg/mL (≈ 5.44 µM) | 0.1 µg/mL (≈ 0.272 µM)
Cc1ccc(-n2cc(C(=O)O)c(=O)c3cc(F)c(N4CCNCC4)cc32)cc1 | – | 2 µg/mL (≈ 5.24 µM) | > 3.1 µg/mL | 3.1 µg/mL (≈ 8.13 µM) | – | 1.6 µg/mL (≈ 4.19 µM) | 4 µg/mL (≈ 10.5 µM) | 0.4 µg/mL (≈ 1.05 µM)
CC1CN(c2cc3c(cc2F)c(=O)c(C(=O)O)cn3-c2ccc(F)cc2F)CC(C)N1 (configuration not stated) | 5.94 | 0.25 µg/mL (≈ 0.579 µM) | 0.8 µg/mL (≈ 1.85 µM) | 0.4 µg/mL (≈ 0.927 µM) | 8.26 | 0.8 µg/mL (≈ 1.85 µM) | 0.5 µg/mL (≈ 1.16 µM) | 0.4 µg/mL (≈ 0.927 µM)
Cc1cc(F)ccc1-n1cc(C(=O)O)c(=O)c2cc(F)c(N3CCNCC3)cc21 | 6.11 | 1 µg/mL (≈ 2.5 µM) | 1.6 µg/mL (≈ 4.01 µM) | 0.8 µg/mL (≈ 2 µM) | 8.37 | 0.4 µg/mL (≈ 1 µM) | 4 µg/mL (≈ 10 µM) | 0.2 µg/mL (≈ 0.501 µM)
Cc1ccc(-n2cc(C(=O)O)c(=O)c3cc(F)c(N4CC(C)NC(C)C4)cc32)cc1 (configuration not stated) | 6.1 | 1 µg/mL (≈ 2.44 µM) | > 3.1 µg/mL | 3.1 µg/mL (≈ 7.57 µM) | 8.61 | 3.1 µg/mL (≈ 7.57 µM) | 4 µg/mL (≈ 9.77 µM) | 0.8 µg/mL (≈ 1.95 µM)
O=C(O)c1cn(C2CC2)c2cc(N3CCNCC3)c(F)cc2c1=O [CIPROFLOXACIN] | – | 0.06 µg/mL (≈ 0.181 µM) | 0.4 µg/mL (≈ 1.21 µM) | – | – | 0.2 µg/mL (≈ 0.604 µM) | 0.25 µg/mL (≈ 0.754 µM) | –
O=C(O)c1cn(-c2ccc(F)cc2)c2cc(N3CCNCC3)c(F)cc2c1=O [SARAFLOXACIN] | 6.02 | 0.25 µg/mL (≈ 0.649 µM) | 0.4 µg/mL (≈ 1.04 µM) | 0.4 µg/mL (≈ 1.04 µM) | 8.59 | 0.2 µg/mL (≈ 0.519 µM) | 1 µg/mL (≈ 2.59 µM) | 0.1 µg/mL (≈ 0.259 µM)
C[C@@H]1CN(c2c(F)c(N)c3c(=O)c(C(=O)O)cn(C4CC4)c3c2F)C[C@H](C)N1 [SPARFLOXACIN] | – | 0.06 µg/mL (≈ 0.153 µM) | 0.1 µg/mL (≈ 0.255 µM) | 0.05 µg/mL (≈ 0.127 µM) | – | 0.8 µg/mL (≈ 2.04 µM) | 0.13 µg/mL (≈ 0.331 µM) | 0.025 µg/mL (≈ 0.0637 µM)
